# According to the supplement of paper PMC12350171:
# Columns and labels:
# Bacteroides vulgatus = test: IC25 growth inhibition; higher = less potent
# Method in brief: (§1)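 Monocultures grown overnight in mGAM were added to pre-reduced plates holding twofold drug dilutions, giving a starting OD578 of 0.01 and 1% DMSO (or water). Growth was followed anaerobically by hourly OD578 readings in a plate reader, with at least three biological replicates. The median growth-curve AUC per concentration was forced to be monotonic. IC25 was the lowest concentration with median AUC below 0.75, reported as a tested interval.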
# [1] = system: Bacteroides thetaiotaomicron; test: IC25 growth inhibition; higher = less potent
# Method in brief: as §1
# Shigella flexneri = test: IC25 growth inhibition; higher = less potent
# Method in brief: as §1
# Vibrio cholerae = test: IC25 growth inhibition; higher = less potent
# Method in brief: as §1
# Bacteroides uniformis = test: IC25 growth inhibition; higher = less potent
# Method in brief: as §1
# [2] = system: Streptococcus parasanguinis; test: IC25 growth inhibition; higher = less potent
# Method in brief: as §1
# [3] = system: Yersinia pseudotuberculosis; test: IC25 growth inhibition; higher = less potent
# Method in brief: as §1
# Parabacteroides merdae = test: IC25 growth inhibition; higher = less potent
# Method in brief: as §1
# Collinsella aerofaciens = test: IC25 growth inhibition; higher = less potent
# Method in brief: as §1
# Coprococcus comes = test: IC25 growth inhibition; higher = less potent
# Method in brief: as §1
# Bacteroides fragilis NT = test: IC25 growth inhibition; higher = less potent
# Method in brief: as §1
# [4] = system: Salmonella enterica typhimurium; test: IC25 growth inhibition; higher = less potent
# Method in brief: as §1
# Roseburia intestinalis = test: IC25 growth inhibition; higher = less potent
# Method in brief: as §1
# Streptococcus salivarius = test: IC25 growth inhibition; higher = less potent
# Method in brief: as §1
# [5] = system: Yersinia enterocolitica WA-314; test: IC25 growth inhibition; higher = less potent
# Method in brief: as §1
# Ruminococcus gnavus = test: IC25 growth inhibition; higher = less potent
# Method in brief: as §1
# [6] = system: Fusobacterium nucleatum subsp. Nucleatum; test: IC25 growth inhibition; higher = less potent
# Method in brief: as §1
# Eubacterium rectale = test: IC25 growth inhibition; higher = less potent
# Method in brief: as §1
# Escherichia coli ED1a = test: IC25 growth inhibition; higher = less potent
# Method in brief: as §1
# Dorea formicigenerans = test: IC25 growth inhibition; higher = less potent
# Method in brief: as §1
# Clostridium bolteae = test: IC25 growth inhibition; higher = less potent
# Method in brief: as §1
# Clostridium ramosum = test: IC25 growth inhibition; higher = less potent
# Method in brief: as §1
# [7] = system: Clostridium saccharolyticum; test: IC25 growth inhibition; higher = less potent
# Method in brief: as §1
# Clostridium perfringens = test: IC25 growth inhibition; higher = less potent
# Method in brief: as §1
# [8] = system: Com21 synthetic gut community; test: community biomass OD578 after 24 h drug treatment relative to untreated (fraction of untreated control); higher = more community growth; details: community: Com21 (Com20 + E. coli ED1a)
# Method: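 Com21 (Com20 plus E. coli ED1a) was treated with drug for 24 h under anaerobic conditions in mGAM. Community OD578 was then measured and normalised to untreated Com21; mean of 3 biological replicates.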
# [9] = drug pretreatment concentration 10 µM
# [10] = drug pretreatment concentration 20 µM
# [11] = drug pretreatment concentration 40 µM
# [12] = drug pretreatment concentration 80 µM
# [13] = drug pretreatment concentration 160 µM
# 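Wherever IC25 growth inhibition is given: lowest concentration where monotonic median growth AUC falls below 0.75 of drug-free control.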
Compound,IC25 growth inhibition (Bacteroides vulgatus),IC25 growth inhibition [1],IC25 growth inhibition (Shigella flexneri),IC25 growth inhibition (Vibrio cholerae),IC25 growth inhibition (Bacteroides uniformis),IC25 growth inhibition [2],IC25 growth inhibition [3],IC25 growth inhibition (Parabacteroides merdae),IC25 growth inhibition (Collinsella aerofaciens),IC25 growth inhibition (Coprococcus comes),IC25 growth inhibition (Bacteroides fragilis NT),IC25 growth inhibition [4],IC25 growth inhibition (Roseburia intestinalis),IC25 growth inhibition (Streptococcus salivarius),IC25 growth inhibition [5],IC25 growth inhibition (Ruminococcus gnavus),IC25 growth inhibition [6],IC25 growth inhibition (Eubacterium rectale),IC25 growth inhibition (Escherichia coli ED1a),IC25 growth inhibition (Dorea formicigenerans),IC25 growth inhibition (Clostridium bolteae),IC25 growth inhibition (Clostridium ramosum),IC25 growth inhibition [7],IC25 growth inhibition (Clostridium perfringens),"community biomass OD578 [8, 9]","community biomass OD578 [8, 10]","community biomass OD578 [8, 11]","community biomass OD578 [8, 12]","community biomass OD578 [8, 13]"
CCOC(=O)C1=C(COCCN)NC(C)=C(C(=O)OC)C1c1ccccc1Cl (stereo not drawn) [Amlodipine],≤ 40 µM,≤ 80 µM,> 80 µM,> 80 µM,≤ 80 µM,> 80 µM,> 80 µM,≤ 80 µM,≤ 80 µM,> 80 µM,≤ 80 µM,> 80 µM,≤ 40 µM,≤ 40 µM,> 80 µM,≤ 80 µM,≤ 80 µM,≤ 80 µM,> 80 µM,≤ 40 µM,–,–,–,–,–,–,–,–,–
O=C1CCc2ccc(OCCCCN3CCN(c4cccc(Cl)c4Cl)CC3)cc2N1 [Aripiprazole],> 160 µM,> 160 µM,> 160 µM,> 160 µM,> 160 µM,> 80 µM,> 40 µM,> 160 µM,> 160 µM,> 160 µM,> 160 µM,> 80 µM,> 160 µM,> 80 µM,> 160 µM,> 160 µM,> 160 µM,> 160 µM,> 160 µM,> 160 µM,> 160 µM,> 160 µM,> 160 µM,> 160 µM,–,–,–,–,–
CC[C@H](C)[C@H]1O[C@]2(C=C[C@@H]1C)C[C@@H]1C[C@@H](C/C=C(\C)[C@@H](O[C@H]3C[C@H](OC)[C@@H](O[C@H]4C[C@H](OC)[C@@H](O)[C@H](C)O4)[C@H](C)O3)[C@@H](C)/C=C/C=C3\CO[C@@H]4[C@H](O)C(C)=C[C@@H](C(=O)O1)[C@]34O)O2.CO[C@H]1C[C@H](O[C@H]2[C@H](C)O[C@@H](O[C@@H]3/C(C)=C/C[C@@H]4C[C@@H](C[C@]5(C=C[C@H](C)[C@@H](C(C)C)O5)O4)OC(=O)[C@@H]4C=C(C)[C@@H](O)[C@H]5OC/C(=C\C=C\[C@@H]3C)[C@]54O)C[C@@H]2OC)O[C@@H](C)[C@@H]1O [Avermectin B1],≤ 10 µM,≤ 20 µM,> 20 µM,> 20 µM,≤ 20 µM,≤ 20 µM,> 10 µM,≤ 10 µM,≤ 10 µM,≤ 20 µM,≤ 10 µM,> 80 µM,≤ 2.5 µM,≤ 10 µM,> 10 µM,≤ 10 µM,> 40 µM,≤ 10 µM,> 160 µM,≤ 5 µM,≤ 40 µM,≤ 40 µM,≤ 80 µM,≤ 10 µM,–,–,–,–,–
CC[C@H]1OC(=O)[C@H](C)[C@@H](O[C@H]2C[C@@](C)(OC)[C@@H](O)[C@H](C)O2)[C@H](C)[C@@H](O[C@@H]2O[C@H](C)C[C@H](N(C)C)[C@H]2O)[C@](C)(OC)C[C@@H](C)C(=O)[C@H](C)[C@@H](O)[C@]1(C)O [Clarithromycin],< 1.25 µM,< 1.25 µM,≤ 10 µM,< 1.25 µM,< 1.25 µM,< 1.25 µM,> 160 µM,< 1.25 µM,< 1.25 µM,< 1.25 µM,< 1.25 µM,≤ 40 µM,< 1.25 µM,< 1.25 µM,≤ 5 µM,< 1.25 µM,≤ 5 µM,< 1.25 µM,≤ 40 µM,< 1.25 µM,< 1.25 µM,< 1.25 µM,< 1.25 µM,< 1.25 µM,–,–,–,–,–
CCC[C@@H]1C[C@@H](C(=O)N[C@@H]([C@H]2O[C@H](SC)[C@H](O)[C@@H](O)[C@H]2O)[C@H](C)Cl)N(C)C1 [Clindamycin],–,–,–,–,–,–,–,–,–,–,–,–,–,–,–,–,–,–,–,–,–,–,–,–,0.263,0.273,0.238,0.158,0.062
CCN(CC)CCOc1ccc(C(=C(Cl)c2ccccc2)c2ccccc2)cc1 [Clomifen],≤ 40 µM,≤ 40 µM,> 80 µM,≤ 80 µM,≤ 40 µM,≤ 80 µM,> 40 µM,≤ 40 µM,≤ 20 µM,≤ 40 µM,≤ 40 µM,> 160 µM,≤ 20 µM,≤ 40 µM,> 80 µM,≤ 10 µM,≤ 80 µM,≤ 40 µM,> 160 µM,≤ 10 µM,≤ 80 µM,≤ 40 µM,≤ 40 µM,≤ 40 µM,–,–,–,–,–
CCN(CC)CCOc1ccc(C(=C(Cl)c2ccccc2)c2ccccc2)cc1 [Clomiphene],–,–,–,–,–,–,–,–,–,–,–,–,–,–,–,–,–,–,–,–,–,–,–,–,0.947,0.955,0.845,0.398,0.335
CCOC(=O)C1=C(C)NC(C)=C(C(=O)OC)C1c1cccc(Cl)c1Cl (stereo not drawn) [Felodipine],≤ 20 µM,≤ 40 µM,> 80 µM,> 80 µM,≤ 20 µM,≤ 40 µM,> 80 µM,≤ 40 µM,≤ 40 µM,> 40 µM,≤ 20 µM,> 20 µM,≤ 10 µM,≤ 10 µM,> 20 µM,≤ 40 µM,> 40 µM,≤ 20 µM,> 40 µM,≤ 20 µM,–,–,–,–,–,–,–,–,–
CNCCC(Oc1ccc(C(F)(F)F)cc1)c1ccccc1 (stereo not drawn) [Fluoxetine],≤ 80 µM,≤ 160 µM,> 160 µM,≤ 160 µM,≤ 80 µM,> 160 µM,≤ 160 µM,≤ 80 µM,≤ 160 µM,≤ 160 µM,≤ 160 µM,> 160 µM,≤ 80 µM,≤ 80 µM,≤ 160 µM,≤ 80 µM,≤ 80 µM,≤ 40 µM,> 160 µM,≤ 40 µM,> 160 µM,> 160 µM,≤ 160 µM,≤ 160 µM,–,–,–,–,–
CN(C)C(=O)C(CCN1CCC(O)(c2ccc(Cl)cc2)CC1)(c1ccccc1)c1ccccc1 [Loperamide],≤ 80 µM,≤ 80 µM,> 80 µM,> 80 µM,≤ 80 µM,> 80 µM,> 80 µM,≤ 80 µM,≤ 80 µM,> 80 µM,≤ 80 µM,> 80 µM,≤ 40 µM,> 80 µM,> 80 µM,≤ 80 µM,> 80 µM,≤ 40 µM,> 160 µM,≤ 80 µM,> 80 µM,> 80 µM,> 80 µM,> 80 µM,–,–,–,–,–
Cc1c(N(C)CS(=O)(=O)O)c(=O)n(-c2ccccc2)n1C [Metamizol],> 160 µM,> 160 µM,> 160 µM,> 160 µM,> 160 µM,> 160 µM,> 160 µM,> 160 µM,> 160 µM,> 160 µM,> 160 µM,> 160 µM,> 160 µM,> 160 µM,> 160 µM,> 160 µM,> 160 µM,> 160 µM,> 160 µM,> 160 µM,> 160 µM,> 160 µM,> 160 µM,> 160 µM,–,–,–,–,–
